Blank lines part the entries; values can stand above or below the compound they belong to. Active and inactive are the calls of the source.
How the values were obtained:
[1] = molecular target: T1, E3 ubiquitin-protein ligase XIAP (Homo sapiens, UniProt P98170); experiment: XIAP antagonists, biochemical, IAP family, fluorescence polarization (AID 1018); type: functional
[2] = molecular target: T1, E3 ubiquitin-protein ligase XIAP; experiment: Counter Screen using XIAP-Bir3 for Chemical Antagonists of Bir1/2 domains of IAP-family anti-apoptotic proteins. [Related pubchem assays (depositor defined):AID1018, AID1449, AID1514, AID1638, AID1749, AID1750, AID488957, AID488963]
[3] = molecular target: T2, Intestinal-type alkaline phosphatase (Homo sapiens, UniProt P09923); experiment: Dose Response confirmation of uHTS hits from a small molecule inhibitors of human intestinal alkaline phosphatase via a luminescent assay. [Related pubchem assays (depositor defined):AID2544, AID2574]; type: functional
[4] = molecular target: T2, Intestinal-type alkaline phosphatase; experiment: human intestinal alkaline phosphatase activators, dose response, biochemical, luminescence, uHTS hits (AID 463120); type: functional
[5] = molecular target: T3, G-protein coupled receptor 55 (Homo sapiens, UniProt Q9Y2T6); experiment: SAR analysis of selective Agonists of GPR55 using an Image-Based Assay. [Related pubchem assays (depositor defined):AID1961, AID1965]; type: functional
Cannabinoid receptor 2 [6] = molecular target: T4, Cannabinoid receptor 2 (Homo sapiens, UniProt P34972); experiment: SAR analysis of antagonists of the Cannabinoid Receptor 2 using an Image-Based Assay - Set 2. [Related pubchem assays (depositor defined):AID1961, AID1965]; type: functional
Cannabinoid receptor 1 [7] = molecular target: T5, Cannabinoid receptor 1 (Homo sapiens, UniProt P21554); experiment: SAR analysis of antagonists of the Cannabinoid Receptor 1 using an Image-Based Assay. [Related pubchem assays (depositor defined):AID1961, AID1965]; type: functional
Cannabinoid receptor 2 [8] = molecular target: T4, Cannabinoid receptor 2; experiment: SAR analysis of agonists of the Cannabinoid Receptor 2 using an Image-Based Assay - Set 2. [Related pubchem assays (depositor defined):AID1961, AID1965]; type: functional
[9] = molecular target: Kappa-type opioid receptor (Homo sapiens, UniProt P41145); experiment: SAR analysis of small molecule agonists of the kappa opioid receptor via a luminescent beta-arrestin assay - Set 3. [Related pubchem assays (depositor defined):AID1777, AID1785, AID1786, AID1966, AID2133, AID2136, AID2284, AID2500]; type: functional
Cannabinoid receptor 1 [10] = molecular target: T5, Cannabinoid receptor 1; experiment: SAR analysis of agonists of the Cannabinoid Receptor 1 using an Image-Based Assay - Set 3. [Related pubchem assays (depositor defined):AID1961, AID1965]; type: functional
[11] = molecular target: T6, G-protein coupled receptor 35 (Homo sapiens, UniProt Q9HC97); experiment: SAR analysis of Antagonists of the GPR35 Receptor using an Image-Based Assay - Set 4. [Related pubchem assays (depositor defined):[…]]; type: functional
Cannabinoid receptor 1 [12] = molecular target: T5, Cannabinoid receptor 1; experiment: SAR analysis of antagonists of the Cannabinoid Receptor 1 using an Image-Based Assay - Set 3. [Related pubchem assays (depositor defined):AID1961, AID1965]; type: functional
[13] = molecular target: T6, G-protein coupled receptor 35; experiment: SAR analysis of Agonists of the GPR35 Receptor using an Image-Based Assay - Set 3. [Related pubchem assays (depositor defined):AID1961, AID1965]; type: functional
[14] = molecular target: T3, G-protein coupled receptor 55; experiment: SAR analysis of selective Agonists of GPR55 using an Image-Based Assay - Set 2. [Related pubchem assays (depositor defined):AID1961, AID1965]; type: functional
[15] = molecular target: Signal transducer and activator of transcription 1-alpha/beta (Homo sapiens, UniProt P42224); experiment: STAT3 inhibitors, late-stage profile, late-stage follow-up, cell-based, STAT1 panel, qPCR, cytotoxicity, panel member STAT1 Inhibition (AID 2078)
[16] = molecular target: Signal transducer and activator of transcription 3 (Homo sapiens, UniProt P40763); experiment: STAT3 inhibitors, late-stage profile, late-stage follow-up, cell-based, STAT1 panel, qPCR, cytotoxicity, panel member STAT3 Inhibition (AID 2078)
Signal transducer and activator of transcription 3, sequence (P40763 whole entry): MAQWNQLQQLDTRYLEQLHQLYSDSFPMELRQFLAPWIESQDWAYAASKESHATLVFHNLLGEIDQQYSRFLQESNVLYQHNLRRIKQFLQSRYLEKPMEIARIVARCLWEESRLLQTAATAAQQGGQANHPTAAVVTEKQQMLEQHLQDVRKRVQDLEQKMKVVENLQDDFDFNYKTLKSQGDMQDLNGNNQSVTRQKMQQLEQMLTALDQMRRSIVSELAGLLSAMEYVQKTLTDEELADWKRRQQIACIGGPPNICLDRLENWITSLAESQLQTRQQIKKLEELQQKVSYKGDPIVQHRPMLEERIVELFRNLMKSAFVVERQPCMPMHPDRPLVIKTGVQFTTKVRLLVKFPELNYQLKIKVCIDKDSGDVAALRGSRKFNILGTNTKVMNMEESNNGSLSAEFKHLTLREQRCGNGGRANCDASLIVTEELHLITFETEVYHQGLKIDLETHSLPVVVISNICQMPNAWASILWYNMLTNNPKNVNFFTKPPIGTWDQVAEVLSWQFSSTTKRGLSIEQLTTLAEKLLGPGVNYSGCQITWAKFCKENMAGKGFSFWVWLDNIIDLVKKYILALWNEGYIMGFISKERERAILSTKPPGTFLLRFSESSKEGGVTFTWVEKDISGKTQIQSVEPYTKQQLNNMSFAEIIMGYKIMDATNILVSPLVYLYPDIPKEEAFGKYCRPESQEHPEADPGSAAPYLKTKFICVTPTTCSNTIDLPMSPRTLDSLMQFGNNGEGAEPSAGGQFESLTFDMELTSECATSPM

T5 sequence (P21554 whole entry): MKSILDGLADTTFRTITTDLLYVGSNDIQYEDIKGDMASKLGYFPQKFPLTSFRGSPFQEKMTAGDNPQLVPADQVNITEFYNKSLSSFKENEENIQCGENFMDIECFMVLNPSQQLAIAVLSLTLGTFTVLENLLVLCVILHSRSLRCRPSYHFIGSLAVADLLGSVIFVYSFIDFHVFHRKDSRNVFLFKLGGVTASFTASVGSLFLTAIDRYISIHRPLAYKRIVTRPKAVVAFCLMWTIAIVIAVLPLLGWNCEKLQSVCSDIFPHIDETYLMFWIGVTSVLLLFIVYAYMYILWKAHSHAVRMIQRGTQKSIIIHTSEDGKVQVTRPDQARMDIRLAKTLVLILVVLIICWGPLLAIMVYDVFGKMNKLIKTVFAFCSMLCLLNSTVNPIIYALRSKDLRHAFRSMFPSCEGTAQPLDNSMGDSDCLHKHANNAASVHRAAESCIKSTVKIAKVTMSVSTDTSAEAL
T4 sequence (P34972 whole entry): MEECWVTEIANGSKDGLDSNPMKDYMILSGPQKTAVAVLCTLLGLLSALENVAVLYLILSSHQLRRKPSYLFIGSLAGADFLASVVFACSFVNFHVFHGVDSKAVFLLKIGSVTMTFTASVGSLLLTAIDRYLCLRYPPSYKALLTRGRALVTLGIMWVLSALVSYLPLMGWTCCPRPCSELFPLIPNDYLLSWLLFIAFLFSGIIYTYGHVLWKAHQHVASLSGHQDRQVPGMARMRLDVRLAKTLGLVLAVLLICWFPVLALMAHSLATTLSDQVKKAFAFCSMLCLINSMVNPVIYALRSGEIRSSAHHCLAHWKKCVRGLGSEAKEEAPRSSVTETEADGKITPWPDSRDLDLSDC
T1 sequence (P98170 whole entry): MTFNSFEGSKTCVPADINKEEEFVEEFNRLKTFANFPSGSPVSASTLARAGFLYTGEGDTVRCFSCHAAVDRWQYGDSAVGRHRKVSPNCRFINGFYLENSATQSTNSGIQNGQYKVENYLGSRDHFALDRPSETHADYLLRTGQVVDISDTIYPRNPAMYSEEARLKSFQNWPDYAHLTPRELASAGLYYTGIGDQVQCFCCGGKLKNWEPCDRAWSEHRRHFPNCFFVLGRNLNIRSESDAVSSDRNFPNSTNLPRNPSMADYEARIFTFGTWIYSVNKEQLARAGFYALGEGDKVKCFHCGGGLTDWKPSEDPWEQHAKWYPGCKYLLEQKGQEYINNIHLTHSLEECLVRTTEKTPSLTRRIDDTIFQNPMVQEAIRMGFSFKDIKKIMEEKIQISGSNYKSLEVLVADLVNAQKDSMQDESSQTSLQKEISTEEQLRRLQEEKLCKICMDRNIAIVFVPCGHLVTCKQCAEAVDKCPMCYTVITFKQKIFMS
T6 sequence (Q9HC97 whole entry): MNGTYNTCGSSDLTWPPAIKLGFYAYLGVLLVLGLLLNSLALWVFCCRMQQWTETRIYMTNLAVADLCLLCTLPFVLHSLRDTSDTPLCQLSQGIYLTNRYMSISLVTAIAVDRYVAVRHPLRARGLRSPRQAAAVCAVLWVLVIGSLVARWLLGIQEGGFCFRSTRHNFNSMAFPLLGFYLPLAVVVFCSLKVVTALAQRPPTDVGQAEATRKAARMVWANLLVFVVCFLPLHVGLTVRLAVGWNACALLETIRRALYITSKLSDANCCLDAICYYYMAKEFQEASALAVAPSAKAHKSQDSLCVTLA
T3 sequence (Q9Y2T6 whole entry): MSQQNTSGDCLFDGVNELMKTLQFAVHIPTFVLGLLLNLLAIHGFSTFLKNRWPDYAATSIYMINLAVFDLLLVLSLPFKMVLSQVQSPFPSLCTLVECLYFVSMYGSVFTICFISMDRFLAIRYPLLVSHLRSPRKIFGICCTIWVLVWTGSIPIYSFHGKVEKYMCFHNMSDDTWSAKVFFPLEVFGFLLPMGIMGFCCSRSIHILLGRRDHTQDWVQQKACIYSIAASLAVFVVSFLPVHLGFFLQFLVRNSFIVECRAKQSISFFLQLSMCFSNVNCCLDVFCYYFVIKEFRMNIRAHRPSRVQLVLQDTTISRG
T2 sequence (P09923 whole entry): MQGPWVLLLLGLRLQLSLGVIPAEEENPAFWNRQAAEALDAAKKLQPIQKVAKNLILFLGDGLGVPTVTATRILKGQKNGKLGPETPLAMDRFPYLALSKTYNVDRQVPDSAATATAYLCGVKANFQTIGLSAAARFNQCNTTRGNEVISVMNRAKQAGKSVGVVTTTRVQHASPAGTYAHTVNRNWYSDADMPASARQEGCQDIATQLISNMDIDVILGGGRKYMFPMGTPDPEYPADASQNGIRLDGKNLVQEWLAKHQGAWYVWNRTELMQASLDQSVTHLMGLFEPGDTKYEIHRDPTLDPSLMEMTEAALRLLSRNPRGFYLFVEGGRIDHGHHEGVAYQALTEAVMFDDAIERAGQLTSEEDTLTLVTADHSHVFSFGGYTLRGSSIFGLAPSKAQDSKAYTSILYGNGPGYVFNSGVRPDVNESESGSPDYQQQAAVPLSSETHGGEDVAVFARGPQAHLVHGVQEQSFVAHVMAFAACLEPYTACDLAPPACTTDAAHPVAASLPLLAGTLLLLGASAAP
Signal transducer and activator of transcription 1-alpha/beta, sequence (P42224 whole entry): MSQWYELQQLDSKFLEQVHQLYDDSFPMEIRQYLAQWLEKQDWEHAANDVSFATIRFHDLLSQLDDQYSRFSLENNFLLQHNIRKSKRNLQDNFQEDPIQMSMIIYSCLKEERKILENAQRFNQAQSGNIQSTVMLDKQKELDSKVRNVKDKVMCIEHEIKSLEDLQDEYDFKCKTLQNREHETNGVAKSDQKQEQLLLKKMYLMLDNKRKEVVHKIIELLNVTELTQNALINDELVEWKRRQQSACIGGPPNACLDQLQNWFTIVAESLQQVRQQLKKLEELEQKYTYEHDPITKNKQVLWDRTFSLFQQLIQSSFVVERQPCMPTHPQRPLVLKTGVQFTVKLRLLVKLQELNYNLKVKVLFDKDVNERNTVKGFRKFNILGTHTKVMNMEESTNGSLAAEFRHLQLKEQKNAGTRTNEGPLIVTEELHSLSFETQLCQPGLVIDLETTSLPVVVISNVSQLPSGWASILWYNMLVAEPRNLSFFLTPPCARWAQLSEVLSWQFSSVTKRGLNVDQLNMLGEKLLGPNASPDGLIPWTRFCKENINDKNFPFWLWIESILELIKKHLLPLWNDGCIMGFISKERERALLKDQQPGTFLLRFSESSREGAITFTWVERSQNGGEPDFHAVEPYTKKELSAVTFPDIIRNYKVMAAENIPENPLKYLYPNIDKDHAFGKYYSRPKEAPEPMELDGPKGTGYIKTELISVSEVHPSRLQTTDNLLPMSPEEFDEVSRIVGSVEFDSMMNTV
Kappa-type opioid receptor, sequence (P41145 whole entry): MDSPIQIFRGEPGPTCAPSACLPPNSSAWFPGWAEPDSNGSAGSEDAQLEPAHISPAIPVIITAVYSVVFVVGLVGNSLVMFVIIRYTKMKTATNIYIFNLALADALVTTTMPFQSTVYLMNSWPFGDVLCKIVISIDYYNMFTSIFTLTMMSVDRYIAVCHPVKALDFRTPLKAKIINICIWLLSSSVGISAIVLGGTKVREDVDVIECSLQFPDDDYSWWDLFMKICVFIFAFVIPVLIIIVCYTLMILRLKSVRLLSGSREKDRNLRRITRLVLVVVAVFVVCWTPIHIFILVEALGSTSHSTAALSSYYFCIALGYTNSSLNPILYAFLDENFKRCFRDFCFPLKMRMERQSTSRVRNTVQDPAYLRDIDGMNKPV

IC50 [1]: > 100 µM (not active)
IC50 [2]: > 100 µM (inactive)
Compound: CCN(Cc1ccccc1)C(=O)/C=C/c1ccccc1[N+](=O)[O-]

IC50 [3]: > 100 µM (inactive)
EC50 [4]: > 100 µM (inactive)
Compound: CC(=O)c1ccc(NC(=O)C2CCCN2S(=O)(=O)c2cccs2)cc1 (stereo not drawn)

EC50 [5]: 0.658 µM (active)
IC50 (Cannabinoid receptor 2 [6]): > 32 µM (inactive)
IC50 (Cannabinoid receptor 1 [7]): > 32 µM (inactive)
EC50 (Cannabinoid receptor 2 [8]): > 32 µM (inactive)
Compound: COc1ccc(-c2csc(NC(=O)CSc3nnc4c(C)cc5ccccc5n34)n2)cc1

EC50 [9]: 11.3 µM (inactive)
Compound: Brc1ccc(CSc2nnc(-c3ccc(Br)cc3)n2Cc2ccco2)cc1

IC50 (Cannabinoid receptor 2 [6]): > 32 µM (inactive)
EC50 (Cannabinoid receptor 2 [8]): > 32 µM (inactive)
EC50 (Cannabinoid receptor 1 [10]): > 32 µM (inactive)
IC50 [11]: > 32 µM (inactive)
IC50 (Cannabinoid receptor 1 [12]): 15.8 µM (inactive)
EC50 [13]: > 32 µM (inactive)
EC50 [14]: 0.0648 µM (active)
Compound: Cc1cc2cc3c(cc2n2c(SCC(=O)Nc4nc(-c5ccccc5)cs4)nnc12)OCO3

Compound: c1ccc(CC2CCN(c3ncnc4scc(-c5ccccc5)c34)CC2)cc1
IC50 [15]: > 55.7 µM (inactive)
IC50 [16]: > 55.7 µM (inactive)

Reference: ChEMBL document CHEMBL1201862, “PubChem BioAssay data set” (2004)
